# Results from the supplement of paper PMC5321775.
# ± gives the standard deviation of the averaged measurements or the uncertainty stated by the source.
# What was measured:
# [1] = system: Caenorhabditis elegans N2; test: mean adult lifespan of treated cohort (days); higher = longer lifespan; conditions: exposure: chronic from day 1 of adulthood, single dose per compound (concentration not stated in sheet)
# Protocol: (§1)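 Caenorhabditis lifespan assay (CITP). Synchronised hermaphrodites were moved on the first day of adulthood onto 35 mm NGM plates with live E. coli OP50-1 and 51 uM FUdR, with the compound spread on the plate. Worms were kept at 20 C and scored for survival.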
# [2] = system: Caenorhabditis elegans MY16; test: as above; conditions: exposure: chronic from day 1 of adulthood, single dose per compound (concentration not stated in sheet)
# Protocol: as §1
# [3] = system: Caenorhabditis briggsae JU1348; test: as above; conditions: exposure: chronic from day 1 of adulthood, single dose per compound (concentration not stated in sheet)
# Protocol: as §1
# [4] = system: Caenorhabditis briggsae AF16; test: as above; conditions: exposure: chronic from day 1 of adulthood, single dose per compound (concentration not stated in sheet)
# Protocol: as §1
# [5] = system: Caenorhabditis briggsae HK104; test: as above; conditions: exposure: chronic from day 1 of adulthood, single dose per compound (concentration not stated in sheet)
# Protocol: as §1
# [6] = system: Caenorhabditis elegans JU775; test: as above; conditions: exposure: chronic from day 1 of adulthood, single dose per compound (concentration not stated in sheet)
# Protocol: as §1
# [7] = system: Caenorhabditis briggsae JU1348; test: Kaplan-Meier median lifespan of treated plate (days); higher = longer lifespan; conditions: exposure: chronic from day 1 of adulthood
# Protocol: (§2)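 Dose-response lifespan assays in three C. briggsae strains (AF16, HK104, JU1348), run per plate (35-40 animals) on NGM with live OP50-1 and 51 uM FUdR at 20 C. Compound was added to the plate surface and worms were exposed from the first day of adulthood.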
# [8] = system: Caenorhabditis briggsae AF16; test: as above; conditions: exposure: chronic from day 1 of adulthood
# Protocol: as §2
# [9] = system: Caenorhabditis briggsae HK104; test: as above; conditions: exposure: chronic from day 1 of adulthood
# Protocol: as §2
# [10] = system: Caenorhabditis briggsae JU1348; test: mean adult lifespan of treated plate (days); higher = longer lifespan; conditions: exposure: chronic from day 1 of adulthood
# Protocol: as §2
# [11] = system: Caenorhabditis briggsae AF16; test: as above; conditions: exposure: chronic from day 1 of adulthood
# Protocol: as §2
# [12] = system: Caenorhabditis briggsae HK104; test: as above; conditions: exposure: chronic from day 1 of adulthood
# Protocol: as §2
# [13] = system: Caenorhabditis elegans N2; test: Kaplan-Meier median lifespan of treated cohort (days); higher = longer lifespan; conditions: exposure: chronic from day 1 of adulthood, single dose per compound (concentration not stated in sheet)
# Protocol: as §1
# [14] = system: Caenorhabditis elegans MY16; test: as above; conditions: exposure: chronic from day 1 of adulthood, single dose per compound (concentration not stated in sheet)
# Protocol: as §1
# [15] = system: Caenorhabditis briggsae JU1348; test: as above; conditions: exposure: chronic from day 1 of adulthood, single dose per compound (concentration not stated in sheet)
# Protocol: as §1
# [16] = system: Caenorhabditis briggsae AF16; test: as above; conditions: exposure: chronic from day 1 of adulthood, single dose per compound (concentration not stated in sheet)
# Protocol: as §1
# [17] = system: Caenorhabditis briggsae HK104; test: as above; conditions: exposure: chronic from day 1 of adulthood, single dose per compound (concentration not stated in sheet)
# Protocol: as §1
# [18] = system: Caenorhabditis elegans JU775; test: as above; conditions: exposure: chronic from day 1 of adulthood, single dose per compound (concentration not stated in sheet)
# Protocol: as §1
smiles,measurement,setting,value
Cc1ccc2c(c1)sc(-c1ccc(N(C)C)cc1)[n+]2C [Thioflavin T],mean adult lifespan of treated cohort,[1],20.2 ± 0.93
same,mean adult lifespan of treated cohort,[2],26.7 ± 0.74
same,mean adult lifespan of treated cohort,[3],27.6 ± 0.89
same,mean adult lifespan of treated cohort,[4],31.3 ± 1.2
same,mean adult lifespan of treated cohort,[5],39.5 ± 1
same,mean adult lifespan of treated cohort,[6],25.5 ± 1
same,Kaplan-Meier median lifespan,[7]; 0.5 µM,24 ± 3.1
same,Kaplan-Meier median lifespan,[7]; 5 µM,23.6 ± 2.9
same,Kaplan-Meier median lifespan,[7]; 25 µM,26.2 ± 3.4
same,Kaplan-Meier median lifespan,[7]; 26.5 µM,33 ± 2.8
same,Kaplan-Meier median lifespan,[7]; 100 µM,22.4 ± 7
same,Kaplan-Meier median lifespan,[7]; 106 µM,4.67 ± 0.58
same,Kaplan-Meier median lifespan,[7]; 530 µM,4
same,Kaplan-Meier median lifespan,[8]; 5.3 µM,28
same,Kaplan-Meier median lifespan,[8]; 26.5 µM,24
same,Kaplan-Meier median lifespan,[8]; 106 µM,5.67 ± 1.1
same,Kaplan-Meier median lifespan,[8]; 530 µM,5.67 ± 1.1
same,Kaplan-Meier median lifespan,[9]; 5.3 µM,33 ± 2.8
same,Kaplan-Meier median lifespan,[9]; 26.5 µM,35
same,Kaplan-Meier median lifespan,[9]; 106 µM,6 ± 1.4
same,Kaplan-Meier median lifespan,[9]; 530 µM,5.5 ± 2.1
same,mean adult lifespan of treated plate,[10]; 0.5 µM,24.1 ± 1.1
same,mean adult lifespan of treated plate,[10]; 5 µM,24.3 ± 1.2
same,mean adult lifespan of treated plate,[10]; 5.3 µM,19.49 ± 0.17
same,mean adult lifespan of treated plate,[10]; 25 µM,25.9 ± 1.1
same,mean adult lifespan of treated plate,[10]; 26.5 µM,28.3 ± 1.2
same,mean adult lifespan of treated plate,[10]; 100 µM,21.5 ± 1.7
same,mean adult lifespan of treated plate,[10]; 106 µM,5.01 ± 0.12
same,mean adult lifespan of treated plate,[10]; 530 µM,4.33 ± 0.092
same,mean adult lifespan of treated plate,[11]; 5.3 µM,28.1 ± 1.5
same,mean adult lifespan of treated plate,[11]; 26.5 µM,17 ± 1
same,mean adult lifespan of treated plate,[11]; 106 µM,5.48 ± 0.12
same,mean adult lifespan of treated plate,[11]; 530 µM,5.75 ± 0.26
same,mean adult lifespan of treated plate,[12]; 5.3 µM,33.5 ± 1.7
same,mean adult lifespan of treated plate,[12]; 26.5 µM,30.8 ± 3.1
same,mean adult lifespan of treated plate,[12]; 106 µM,5.61 ± 0.26
same,mean adult lifespan of treated plate,[12]; 530 µM,5.71 ± 0.35
same,Kaplan-Meier median lifespan,[13],21.4 ± 5
same,Kaplan-Meier median lifespan,[14],27.2 ± 3.1
same,Kaplan-Meier median lifespan,[15],28.1 ± 4.4
same,Kaplan-Meier median lifespan,[16],31.7 ± 5.8
same,Kaplan-Meier median lifespan,[17],41.4 ± 3.5
same,Kaplan-Meier median lifespan,[18],27.7 ± 2.4
O=C(O)CCC(=O)C(=O)O [alpha-ketoglutaric acid],mean adult lifespan of treated cohort,[1],21.4 ± 0.45
same,mean adult lifespan of treated cohort,[2],24.9 ± 0.53
same,mean adult lifespan of treated cohort,[3],24.6 ± 0.77
same,mean adult lifespan of treated cohort,[4],25.9 ± 0.89
same,mean adult lifespan of treated cohort,[5],33.8 ± 0.71
same,mean adult lifespan of treated cohort,[6],24.6 ± 0.58
same,Kaplan-Meier median lifespan,[7]; 100 µM,23.3 ± 2.5
same,Kaplan-Meier median lifespan,[7]; 500 µM,25.3 ± 2.5
same,Kaplan-Meier median lifespan,[7]; 800 µM,23 ± 4.2
same,Kaplan-Meier median lifespan,[7]; 1000 µM,28 ± 3
same,Kaplan-Meier median lifespan,[7]; 4000 µM,22.8 ± 5.2
same,Kaplan-Meier median lifespan,[7]; 16000 µM,12.5 ± 1
same,Kaplan-Meier median lifespan,[7]; 40000 µM,11 ± 1.1
same,Kaplan-Meier median lifespan,[8]; 100 µM,26.5 ± 1.7
same,Kaplan-Meier median lifespan,[8]; 500 µM,25 ± 2.2
same,Kaplan-Meier median lifespan,[8]; 800 µM,26
same,Kaplan-Meier median lifespan,[8]; 1000 µM,28 ± 2.5
same,Kaplan-Meier median lifespan,[8]; 4000 µM,25.9 ± 5.6
same,Kaplan-Meier median lifespan,[8]; 16000 µM,19 ± 1.6
same,Kaplan-Meier median lifespan,[8]; 40000 µM,18.5 ± 1.9
same,Kaplan-Meier median lifespan,[9]; 100 µM,36 ± 4.6
same,Kaplan-Meier median lifespan,[9]; 500 µM,37.2 ± 4
same,Kaplan-Meier median lifespan,[9]; 800 µM,36.3 ± 4.7
same,Kaplan-Meier median lifespan,[9]; 1000 µM,37.2 ± 6.3
same,Kaplan-Meier median lifespan,[9]; 4000 µM,35 ± 5
same,Kaplan-Meier median lifespan,[9]; 16000 µM,23.8 ± 2.1
same,Kaplan-Meier median lifespan,[9]; 40000 µM,25.8 ± 2.1
same,mean adult lifespan of treated plate,[10]; 100 µM,23.3 ± 1.4
same,mean adult lifespan of treated plate,[10]; 500 µM,23.5 ± 1.1
same,mean adult lifespan of treated plate,[10]; 800 µM,22.7 ± 1.1
same,mean adult lifespan of treated plate,[10]; 1000 µM,25.5 ± 1.3
same,mean adult lifespan of treated plate,[10]; 4000 µM,24.6 ± 1.9
same,mean adult lifespan of treated plate,[10]; 16000 µM,14.7 ± 1.2
same,mean adult lifespan of treated plate,[10]; 40000 µM,11.7 ± 0.54
same,mean adult lifespan of treated plate,[11]; 100 µM,27 ± 1.5
same,mean adult lifespan of treated plate,[11]; 500 µM,21.7 ± 1.1
same,mean adult lifespan of treated plate,[11]; 800 µM,24.9 ± 0.84
same,mean adult lifespan of treated plate,[11]; 1000 µM,27.5 ± 1.4
same,mean adult lifespan of treated plate,[11]; 4000 µM,26.5 ± 1.3
same,mean adult lifespan of treated plate,[11]; 16000 µM,20.2 ± 1.1
same,mean adult lifespan of treated plate,[11]; 40000 µM,20.3 ± 1
same,mean adult lifespan of treated plate,[12]; 100 µM,33.8 ± 1.2
same,mean adult lifespan of treated plate,[12]; 500 µM,35.3 ± 1.6
same,mean adult lifespan of treated plate,[12]; 800 µM,33.7 ± 1.4
same,mean adult lifespan of treated plate,[12]; 1000 µM,36.7 ± 1.3
same,mean adult lifespan of treated plate,[12]; 4000 µM,33 ± 1.4
same,mean adult lifespan of treated plate,[12]; 16000 µM,23.6 ± 1.1
same,mean adult lifespan of treated plate,[12]; 40000 µM,24.7 ± 1.1
same,Kaplan-Meier median lifespan,[13],21.9 ± 1.6
same,Kaplan-Meier median lifespan,[14],25.3 ± 1.4
same,Kaplan-Meier median lifespan,[15],25.9 ± 2.3
same,Kaplan-Meier median lifespan,[16],26.3 ± 1.7
same,Kaplan-Meier median lifespan,[17],34.7 ± 2.5
same,Kaplan-Meier median lifespan,[18],25.6 ± 1.7
